Source: patent publication US12396981B2 (priority 2023, dated 2025)
Several values for one entry are separate records, joined by “and”; a condition that tells them apart may be missing. Equal entries are not always repeated.

Key:
[1] = cited from earlier work
[2] = comparable to psilocin; Jones 2024; cited from earlier work
5-HT2A = 5-HT2A (Homo sapiens, UniProt P28223); conditions: Halberstadt & Geyer 2011; cited from earlier work
5-HT7 = 5-HT7 (Homo sapiens, UniProt P34969); conditions: Halberstadt & Geyer 2011; cited from earlier work
[3] = cited from earlier work; remark: listed apart in the source
[4] = Challenging Experience Questionnaire (CEQ) after inhaling DMT according to a disclosed method; assay type: in vivo, human
Excerpt: (§1) The study included nine participants with the following demographic characteristics:
(§2) For the MEQ and CEQ higher scores indicate a more mystical experience and a more challenging experience, respectively.

5-HT1B = 5-HT1B (Homo sapiens, UniProt P28222); conditions: Halberstadt & Geyer 2011; cited from earlier work
5-HT6 = 5-HT6 (Homo sapiens, UniProt P50406); conditions: Halberstadt & Geyer 2011; cited from earlier work
5-HT5A = 5-HT5A (Homo sapiens, UniProt P47898); conditions: Halberstadt & Geyer 2011; cited from earlier work
5-HT1D = 5-HT1D (Homo sapiens, UniProt P28221); conditions: Halberstadt & Geyer 2011; cited from earlier work
[5] = molecular target: Tropomyosin receptor kinase B (TrkB) (Homo sapiens, UniProt Q16620); conditions: Moliner 2023; cited from earlier work
5-HT1E = 5-HT1E (Homo sapiens, UniProt P28566); conditions: Halberstadt & Geyer 2011; cited from earlier work
[6] = Mystical Experience Questionnaire (MEQ30) after inhaling DMT according to a disclosed method; assay type: in vivo, human
Excerpt: as §1, §2

sigma-1 receptor = sigma-1 receptor (Homo sapiens, UniProt Q99720); conditions: Fontanilla 2009; Ray 2010; cited from earlier work
NMDA receptors = conditions: Moliner 2023; cited from earlier work
[7] = mean over the nine participants
[8] = per participant, r8-r16 = participants 1-9
[9] = MEQ30 item score, c1-c9 = participants 1-9, after inhaled DMT per disclosed method
[10] = mean item score per participant, r7-r15 = participants 1-9
[11] = total per participant, r7-r15 = participants 1-9

Tropomyosin receptor kinase B (TrkB), sequence (Q16620 32-822, species assumed): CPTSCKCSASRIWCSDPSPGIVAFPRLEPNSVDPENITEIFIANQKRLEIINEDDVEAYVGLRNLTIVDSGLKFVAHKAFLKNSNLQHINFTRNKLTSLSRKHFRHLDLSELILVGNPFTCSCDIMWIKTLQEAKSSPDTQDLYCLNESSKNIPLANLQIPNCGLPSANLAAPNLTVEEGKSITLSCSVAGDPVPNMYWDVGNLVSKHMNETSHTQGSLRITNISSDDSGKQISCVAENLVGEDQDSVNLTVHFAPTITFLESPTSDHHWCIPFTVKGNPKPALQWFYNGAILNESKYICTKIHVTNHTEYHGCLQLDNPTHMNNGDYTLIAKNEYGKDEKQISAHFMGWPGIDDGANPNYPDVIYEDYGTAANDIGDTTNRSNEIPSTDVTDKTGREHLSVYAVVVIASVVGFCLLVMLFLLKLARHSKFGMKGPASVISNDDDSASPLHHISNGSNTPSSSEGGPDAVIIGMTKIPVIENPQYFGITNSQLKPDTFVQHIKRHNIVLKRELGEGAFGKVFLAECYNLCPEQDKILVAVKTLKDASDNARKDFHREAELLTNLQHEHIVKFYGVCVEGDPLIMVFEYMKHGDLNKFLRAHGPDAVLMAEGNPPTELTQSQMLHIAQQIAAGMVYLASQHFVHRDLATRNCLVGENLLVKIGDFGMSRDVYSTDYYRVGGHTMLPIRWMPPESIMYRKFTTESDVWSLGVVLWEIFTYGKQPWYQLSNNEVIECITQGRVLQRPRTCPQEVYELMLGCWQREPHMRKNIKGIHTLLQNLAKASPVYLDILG
5-HT1D, sequence (P28221 whole entry, species assumed): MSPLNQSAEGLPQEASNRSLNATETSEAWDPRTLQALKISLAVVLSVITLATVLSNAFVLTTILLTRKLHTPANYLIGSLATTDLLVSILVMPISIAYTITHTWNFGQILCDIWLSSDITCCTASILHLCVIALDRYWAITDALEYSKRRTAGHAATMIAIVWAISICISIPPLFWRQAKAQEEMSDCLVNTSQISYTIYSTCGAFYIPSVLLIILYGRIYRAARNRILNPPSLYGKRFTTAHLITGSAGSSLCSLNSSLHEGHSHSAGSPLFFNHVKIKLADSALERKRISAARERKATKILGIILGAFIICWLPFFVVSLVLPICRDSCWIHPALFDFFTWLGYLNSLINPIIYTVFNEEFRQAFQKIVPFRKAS
sigma-1 receptor, sequence (Q99720 whole entry, species assumed): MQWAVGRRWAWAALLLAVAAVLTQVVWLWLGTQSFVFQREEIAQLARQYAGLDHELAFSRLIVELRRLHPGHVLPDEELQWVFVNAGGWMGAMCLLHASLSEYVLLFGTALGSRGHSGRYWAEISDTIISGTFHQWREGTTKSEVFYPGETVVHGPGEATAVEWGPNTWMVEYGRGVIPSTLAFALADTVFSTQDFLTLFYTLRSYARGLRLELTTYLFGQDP
5-HT1B, sequence (P28222 whole entry, species assumed): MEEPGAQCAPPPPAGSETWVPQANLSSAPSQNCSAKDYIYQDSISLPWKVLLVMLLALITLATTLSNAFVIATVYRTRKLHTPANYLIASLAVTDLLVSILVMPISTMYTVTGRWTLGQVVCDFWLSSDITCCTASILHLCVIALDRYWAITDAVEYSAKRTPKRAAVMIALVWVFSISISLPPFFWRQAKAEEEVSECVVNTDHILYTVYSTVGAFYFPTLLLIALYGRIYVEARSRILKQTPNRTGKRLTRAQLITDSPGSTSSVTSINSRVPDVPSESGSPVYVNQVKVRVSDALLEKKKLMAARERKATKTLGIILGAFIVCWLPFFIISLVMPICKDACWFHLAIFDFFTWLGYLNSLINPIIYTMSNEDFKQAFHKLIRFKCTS
5-HT2A, sequence (P28223 whole entry): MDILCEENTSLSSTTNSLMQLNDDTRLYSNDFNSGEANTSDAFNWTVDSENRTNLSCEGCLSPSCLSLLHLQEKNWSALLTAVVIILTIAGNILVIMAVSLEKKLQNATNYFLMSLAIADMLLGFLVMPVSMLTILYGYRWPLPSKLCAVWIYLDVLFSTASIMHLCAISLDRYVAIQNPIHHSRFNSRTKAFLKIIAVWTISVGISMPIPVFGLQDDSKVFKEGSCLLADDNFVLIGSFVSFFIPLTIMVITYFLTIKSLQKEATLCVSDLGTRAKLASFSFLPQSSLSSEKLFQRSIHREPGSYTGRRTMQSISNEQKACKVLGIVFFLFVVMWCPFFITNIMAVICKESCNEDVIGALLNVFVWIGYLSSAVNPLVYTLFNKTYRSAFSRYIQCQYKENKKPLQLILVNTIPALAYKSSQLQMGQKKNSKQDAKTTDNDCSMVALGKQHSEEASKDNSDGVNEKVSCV
5-HT7, sequence (P34969 whole entry, species assumed): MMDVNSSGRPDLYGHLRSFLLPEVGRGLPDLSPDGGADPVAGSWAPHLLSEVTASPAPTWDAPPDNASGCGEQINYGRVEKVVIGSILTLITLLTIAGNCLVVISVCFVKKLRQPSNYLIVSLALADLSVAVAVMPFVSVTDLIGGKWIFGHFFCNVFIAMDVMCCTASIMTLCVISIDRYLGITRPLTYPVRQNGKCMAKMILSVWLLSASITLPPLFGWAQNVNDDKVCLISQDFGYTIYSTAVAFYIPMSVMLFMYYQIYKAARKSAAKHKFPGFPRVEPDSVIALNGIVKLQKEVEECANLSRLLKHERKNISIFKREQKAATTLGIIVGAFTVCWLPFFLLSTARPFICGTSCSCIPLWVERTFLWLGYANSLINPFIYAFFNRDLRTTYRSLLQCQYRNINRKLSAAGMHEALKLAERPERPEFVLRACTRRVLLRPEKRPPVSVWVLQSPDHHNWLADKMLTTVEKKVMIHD
5-HT6, sequence (P50406 whole entry, species assumed): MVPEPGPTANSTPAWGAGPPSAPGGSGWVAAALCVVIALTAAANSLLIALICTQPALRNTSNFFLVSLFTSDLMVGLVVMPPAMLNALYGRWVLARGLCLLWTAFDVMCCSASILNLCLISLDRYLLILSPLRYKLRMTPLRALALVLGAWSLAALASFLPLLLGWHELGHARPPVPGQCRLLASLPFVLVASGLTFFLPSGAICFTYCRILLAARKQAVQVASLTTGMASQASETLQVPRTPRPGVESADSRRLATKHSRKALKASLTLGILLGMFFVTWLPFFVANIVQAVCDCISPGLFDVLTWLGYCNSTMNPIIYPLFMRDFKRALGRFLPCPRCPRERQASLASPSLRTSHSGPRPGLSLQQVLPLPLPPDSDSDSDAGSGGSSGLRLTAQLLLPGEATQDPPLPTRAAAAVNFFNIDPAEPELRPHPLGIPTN
5-HT1E, sequence (P28566 whole entry, species assumed): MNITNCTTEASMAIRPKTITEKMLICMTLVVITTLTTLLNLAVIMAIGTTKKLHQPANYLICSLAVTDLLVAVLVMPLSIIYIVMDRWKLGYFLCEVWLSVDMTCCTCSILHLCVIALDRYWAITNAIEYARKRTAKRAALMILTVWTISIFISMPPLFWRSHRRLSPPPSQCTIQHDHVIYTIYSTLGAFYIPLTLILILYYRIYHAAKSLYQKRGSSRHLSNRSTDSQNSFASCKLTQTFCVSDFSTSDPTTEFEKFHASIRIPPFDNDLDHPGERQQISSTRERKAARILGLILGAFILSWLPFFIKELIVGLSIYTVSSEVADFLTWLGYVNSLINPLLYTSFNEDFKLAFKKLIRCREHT
5-HT5A, sequence (P47898 whole entry, species assumed): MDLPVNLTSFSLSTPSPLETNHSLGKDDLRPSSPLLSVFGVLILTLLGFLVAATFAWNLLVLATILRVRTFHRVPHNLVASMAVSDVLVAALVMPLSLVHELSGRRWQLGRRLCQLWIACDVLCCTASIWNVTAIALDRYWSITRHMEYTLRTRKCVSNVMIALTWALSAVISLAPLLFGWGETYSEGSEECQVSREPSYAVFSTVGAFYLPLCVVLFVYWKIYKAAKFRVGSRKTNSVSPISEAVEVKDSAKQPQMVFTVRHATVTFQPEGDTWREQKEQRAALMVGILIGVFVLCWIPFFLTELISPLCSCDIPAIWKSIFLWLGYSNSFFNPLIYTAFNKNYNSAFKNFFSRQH

**Q.** What does the source list for O=C1Nc2ccc(Cl)cc2C(c2ccccc2Cl)=NC1O (racemic) [Lorazepam, ±7-chloro-5-(2-chlorophenyl)-1,3-dihydro-3-hydroxy-2H-1,4-benzodiazepin-2-one]?
**A.** time of peak plasma concentrations (Tmax) ([1]; after oral administration): about 2 hours; half-life in human plasma ([1]; human plasma): about 12 hours

**Q.** Which “duration of subjective effects” value [2] does the source give for CC(=O)Oc1cccc2[nH]cc(CCN(C)C)c12 [Psilacetin, 4-acetoxy-N,N-dimethyltryptamine] here?
**A.** Its value is 4 to 8 h.

**Q.** With CN(C)CCc1c[nH]c2ccccc12 [DMT, N,N-dimethyltryptamine] as the compound, how does the Ki (5-HT2A) read?
**A.** Its Ki is 127 nM.

**Q.** What about the Ki (5-HT7) of the same compound?
**A.** The Ki was 206 nM.

**Q.** And the “half life from the blood” value ([3]; blood)?
**A.** The value was “less than 16 minutes”.

**Q.** And the “half life from the brain” value ([3]; brain)?
**A.** The value was “less than six”.

**Q.** And the “mean participant score, of the maximum score” value ([4]; Fear, Physical Distress, Insanity, Isolation, Death, and Paranoia subscales)?
**A.** Its value is “less than 6%”.

**Q.** And the “mean participant score on each of the CEQ subscales, of the maximum possible score” value ([4]; each CEQ subscale)?
**A.** Its value is at most 10%.

**Q.** And the “Death, Mean (CEQ dimension)” value [4, 7]?
**A.** The value was 0.44.

**Q.** What about the “Fear, Mean (CEQ dimension)” value [4, 7] of the same compound?
**A.** Its value is 1.889.

**Q.** What about the “Grief, Mean (CEQ dimension)” value [4, 7] of the same compound?
**A.** Its value is 3.11.

**Q.** What about the “Insanity, Mean (CEQ dimension)” value [4, 7] of the same compound?
**A.** Its value is 0.89.

**Q.** What about the “Isolation, Mean (CEQ dimension)” value [4, 7] of the same compound?
**A.** The value was 0.78.

**Q.** What about the “Paranoia, Mean (CEQ dimension)” value [4, 7] of the same compound?
**A.** The value was 0.44.

**Q.** What about the “Physical Distress, Mean (CEQ dimension)” value [4, 7] of the same compound?
**A.** The value was 0.89.

**Q.** What about the “Death (CEQ dimension score)” value [4, 8] of the same compound?
**A.** Its value is 1 (2×) and 2 and 0 (6×).

**Q.** What about the “Fear (CEQ dimension score)” value [4, 8] of the same compound?
**A.** The value was 0 (5×) and 5 (3×) and 2.

**Q.** What about the “Grief (CEQ dimension score)” value [4, 8] of the same compound?
**A.** Its value is 1 and 6 (2×) and 0 (4×) and 12 and 3.

**Q.** And the “Insanity (CEQ dimension score)” value [4, 8]?
**A.** Its value is 0 (5×) and 3 and 2 (2×) and 1.

**Q.** And the “Isolation (CEQ dimension score)” value [4, 8]?
**A.** Its value is 0 (7×) and 3 and 4.

**Q.** What about the “Paranoia (CEQ dimension score)” value [4, 8] of the same compound?
**A.** Its value is 0 (7×) and 2 (2×).

**Q.** And the “Physical Distress (CEQ dimension score)” value [4, 8]?
**A.** Its value is 1 (3×) and 5 and 0 (5×).

**Q.** And the Ki (5-HT1B)?
**A.** The Ki was 129 nM.

**Q.** What about the Ki (5-HT6) of the same compound?
**A.** Its Ki is 464 nM.

**Q.** And the Ki (5-HT5A)?
**A.** Its Ki is 2140 nM.

**Q.** What about the Ki (5-HT1D) of the same compound?
**A.** Its Ki is 39 nM.

**Q.** What about the “binding to TrkB” value [5] of the same compound?
**A.** Its value is “do not bind TrkB directly”.

**Q.** What about the Ki (5-HT1E) of the same compound?
**A.** The Ki was 517 nM.

**Q.** What about the “2.1 Experience of amazement.” value [6, 9] of the same compound?
**A.** Its value is 3 and 5 and 4.

**Q.** And the “2.4 Experience of ecstasy.” value [6, 9]?
**A.** The value was 3 and 5 and 4.

**Q.** What about the “2.5 Sense of awe or awesomeness.” value [6, 9] of the same compound?
**A.** The value was 3 and 5 and 4.

**Q.** And the “2.6 Feelings of joy.” value [6, 9]?
**A.** The value was 3 and 4 and 5.

**Q.** What about the “4.2 Feeling that you could not do justice to your experience by describing it in words.” value [6, 9] of the same compound?
**A.** Its value is 4 and 3 and 5.

**Q.** And the “4.3 Feeling that it would be difficult to communicate your own experience to others who have not had similar experiences.” value [6, 9]?
**A.** The value was 3 and 4 and 5.

**Q.** And the “Ineffability, mean participant score (MEQ30 dimension)” value [6, 10]?
**A.** Its value is 5.00 (4×) and 4.00 (3×) and 3.00 (2×).

**Q.** And the “Mysticism, mean participant score (MEQ30 dimension)” value [6, 10]?
**A.** The value was 2.53 and 3.33 and 5.00 and 3.87 and 4.00 (2×) and 4.73 and 1.33 and 3.60.

**Q.** What about the “Positive Mood, mean participant score (MEQ30 dimension)” value [6, 10] of the same compound?
**A.** Its value is 4.33 (2×) and 3.50 (2×) and 4.83 and 4.50 and 2.67 (2×) and 5.00.

**Q.** And the “Transcendence, mean participant score (MEQ30 dimension)” value [6, 10]?
**A.** The value was 2.83 and 5.00 (2×) and 3.83 and 4.00 and 1.50 and 2.67 and 3.50.

**Q.** And the “Ineffability, Mean (MEQ30 dimension)” value [6, 7]?
**A.** The value was 4.22.

**Q.** What about the “Mysticism, Mean (MEQ30 dimension)” value [6, 7] of the same compound?
**A.** The value was 3.60.

**Q.** What about the “Positive Mood, Mean (MEQ30 dimension)” value [6, 7] of the same compound?
**A.** Its value is 3.93.

**Q.** What about the “Transcendence, Mean (MEQ30 dimension)” value [6, 7] of the same compound?
**A.** The value was 3.35.

**Q.** And the “participants with a score >= 60% of the maximum score on the Ineffability subscale” value ([6]; nine participants)?
**A.** The value was 100%.

**Q.** What about the “participants with a score >= 60% of the maximum score on the Mystical and Positive Mood subscales” value ([6]; nine participants) of the same compound?
**A.** Its value is 78%.

**Q.** And the “participants with a score >= 60% of the maximum score on the Transcendence of Time and Space subscale” value ([6]; nine participants)?
**A.** Its value is 55%.

**Q.** And the “participants with a score >= 75% of the maximum score on the Ineffability subscale” value ([6]; nine participants)?
**A.** The value was 78%.

**Q.** And the “participants with a score >= 75% of the maximum score on the Transcendence of Time and Space subscale” value ([6]; nine participants)?
**A.** Its value is 44%.

**Q.** And the “participants with a score >= 75% of the maximum scores on the Mystical and Positive Mood subscales” value ([6]; nine participants)?
**A.** The value was 55%.

**Q.** And the “participants with a score of greater than or equal to 60% on at least one MEQ30 subscale” value ([6]; nine participants)?
**A.** Its value is “all participants”.

**Q.** What about the “Ineffability, total score (MEQ30 subscale)” value [6, 11] of the same compound?
**A.** Its value is 15 (4×) and 12 (3×) and 9 (2×).

**Q.** What about the “Mysticism, total score (MEQ30 subscale)” value [6, 11] of the same compound?
**A.** Its value is 38 and 50 and 75 and 58 and 60 (2×) and 71 and 20 and 54.

**Q.** What about the “Positive Mood, total score (MEQ30 subscale)” value [6, 11] of the same compound?
**A.** Its value is 26 (2×) and 21 (2×) and 29 and 27 and 16 (2×) and 30.

**Q.** And the “Transcendence, total score (MEQ30 subscale)” value [6, 11]?
**A.** The value was 17 and 11 and 30 (2×) and 23 and 24 and 9 and 16 and 21.

**Q.** What about the “binding to the sigma-1 receptor” value (sigma-1 receptor) of the same compound?
**A.** Its value is “binds to the sigma-1 receptor”.

**Q.** With CNC1(c2ccccc2Cl)CCCCC1=O (stereo not shown) [Ketamine] as the compound, how does the “binding to TrkB” value [5] read?
**A.** The value was “does directly bind to TrkB”.

**Q.** What does the source list for N[C@@]1(c2ccccc2Cl)CCC[C@@H](O)C1=O [2R,6R-hydroxynorketamine]?
**A.** affinity to NMDA receptors (NMDA receptors): low affinity; binding to TrkB [5]: binds to TrkB

**Q.** With CN(C)CCc1c[nH]c2cccc(O)c12 [Psilocin, 4-hydroxy-N,N-dimethyltryptamine] as the compound, how does the Ki (5-HT1B) read?
**A.** The Ki was 220 nM.

**Q.** And the Ki (5-HT1D)?
**A.** Its Ki is 36.4 nM.

**Q.** What about the “binding to the sigma-1 receptor” value (sigma-1 receptor) of the same compound?
**A.** The value was “no affinity”.
